Source: patent US8628938B2, “Polynucleotide encoding UDP-glucuronyl transferase” (Suntory Holdings Limited, priority 2007, dated 2014)

Key:
Conditions in all cases: for relative activity to each substrate, taking the activity to scutellarein as 100%: 100 μM glycosyl acceptor substrate, 2 mM UDP-glucuronic acid, pH 7.5, 30° C., 30 minutes; for glucuronosyl transfer activity to glycosyl acceptor substrate (in words): standard reaction conditions
AmUGTcg10 = experiment: UDP-glucuronosyltransferase activity assay (HPLC) with recombinant AmUGTcg10; type: biochemical, Antirrhinum majus
Procedure: (§1) Escherichia coli BL21 (DE3) was transformed with each plasmid obtained in 4-(1) above. The transformant obtained was shake cultured overnight at 37° C. in 4 ml of LB medium (10 g/l tryptone, 5 g/l yeast extract, 1 g/l NaCl) supplemented with 50 μg/ml of ampicillin. The culture broth, 4 ml, which reached the stationary phase, was inoculated into 80 ml of the medium with the same composition, followed by shake culture at 37° C. When the cell turbidity (OD600) reached approximately 0.5, 0.4 mM IPTG (isopropyl-β-thiogalactopyranoside) in a final concentration was added to the medium, followed by shake culture at 22° C. for 20 hours. All of the subsequent procedures were performed at 4° C. The transformants cultured were centrifuged (7,000×g, 15 mins.) to collect the cells, and 2 ml/g cell of Buffer S (20 mM sodium phosphate buffer (pH 7.4), 20 mM imidazole, 0.5 M NaCl, 14 mM β-mercaptoethanol) was added to the cells for suspension. Subsequently, ultrasonication was performed (15 secs.×8) followed by centrifugation (15,000×g, 10 mins.). To the supernatant obtained, 0.12% (w/v) polyethyleneimine in a final concentration was added to […], which was then allowed to stand for 30 minutes. The mixture was centrifuged (15,000×g, 10 mins.) and the supernatant was recovered as a crude enzyme solution. The crude enzyme solution was applied to His SpinTrap (GE Healthcare), which had been equilibrated with Buffer S, and centrifuged (70×g, 30 secs.). After washing with 600 μl of Buffer S, the protein bound to the column was stepwise eluted with 600 μl each of Buffer S containing 100, 200 and 500 mM imidazole. The buffer in each fraction eluted was replaced by 20 mM potassium phosphate buffer (pH 7.5) containing 14 mM β-mercaptoethanol, using Microcon YM-30 (Amicon). […] These fractions were mixed and used for analysis.
(§2) Standard reaction conditions are as follows. A reaction solution (2 mM UDP-glucuronic acid, 100 μM glycosyl acceptor substrate, 50 mM potassium phosphate buffer (pH 7.5), enzyme solution), 50 μl, was prepared and the enzyme solution was added to initiate the reaction at 30° C. for 30 minutes. The reaction was stopped by adding 50 μl of 0.5% TFA in CH3CN and provided for HPLC analysis. The conditions for HPLC are as follows: column, Develosil C30-UG-5 (4.6×150 mm); eluant A, 0.1% TFA/H2O; eluant B, 0.08% TFA/90% CH3CN; conditions A for elution (except for aurone, catechin, coumarine and phenylpropanoid), 0 min/5% B→18 min/100% eluant B'18.1 min/5% B→25 min/5% B; conditions B for elution (aurone, catechin, coumarine and phenylpropanoid), 0 min/5% B→20 min/50% eluant B→20.5 min/5% B→25 min/5% B; flow rate, 1 ml/min; detection wavelength: 280 and 350 nm.

S1UGT = experiment: UDP-glucuronosyltransferase activity assay (HPLC) with recombinant S1UGT; type: biochemical, Scutellaria laeteviolacea v. yakusimensis
Procedure: as §1, §2

SiUGT23 = experiment: UDP-glucuronosyltransferase activity assay (HPLC) with recombinant SiUGT23; type: biochemical, Sesamum indicum
Procedure: as §2
cDNA containing full-length ORF of SiUGT23 derived from Sesamum indicum was amplified by a gene-specific primer set (SEQ ID NOs: 24 and 25). cDNA synthesized using total RNA extracted from sesame seeds was used as a template. SiUGT23 was incorporated into Escherichia coli expression vector as in UGT of Perilla frutescens, Scutellaria laeteviolacea v. yakusimensis and Antirrhinum majus in EXAMPLE 1 and recombinant SiUGT23 protein was expressed in the same way to assay the enzyme activity.

PfUGT50 = experiment: UDP-glucuronosyltransferase activity assay (HPLC) with recombinant PfUGT50; type: biochemical, Perilla frutescens
Procedure: as §1, §2

[1] = apigenin as glycosyl acceptor substrate

relative activity to each substrate, taking the activity to scutellarein as 100% (S1UGT) | relative activity to each substrate, taking the activity to scutellarein as 100% (SiUGT23) | relative activity to each substrate, taking the activity to scutellarein as 100% (PfUGT50) | glucuronosyl transfer activity to glycosyl acceptor substrate (in words) (AmUGTcg10) | glucuronosyl transfer activity to glycosyl acceptor substrate (in words) (SiUGT23) | glucuronosyl transfer activity to glycosyl acceptor substrate (in words) (PfUGT50) | glucuronosyl transfer activity to glycosyl acceptor substrate (in words) (S1UGT) | Compound | other results
6% | 2% | 3% |  |  |  |  | O=C1C[C@@H](c2ccc(O)cc2)Oc2cc(O)cc(O)c21 [naringenin] | relative activity to each substrate, taking the activity to scutellarein as 100% (AmUGTcg10): 15%
 |  |  |  | no activity |  |  | O=C(O)/C=C/c1ccc(O)c(O)c1 [caffeic acid] | 
 |  |  | no activity |  | no activity | no activity | COc1cc(/C=C/CO)ccc1O [coniferyl alcohol] | 
0.02% | 6% | 18% |  |  |  |  | COc1cc(-c2cc(=O)c3c(O)cc(O)cc3o2)ccc1O [chrysoeriol] | relative activity to each substrate, taking the activity to scutellarein as 100% (AmUGTcg10): 18%
14% | 18% | 3% |  |  |  |  | O=c1c(O)c(-c2ccc(O)cc2)oc2cc(O)cc(O)c12 [kaempferol] | relative activity to each substrate, taking the activity to scutellarein as 100% (AmUGTcg10): 28%
1% |  |  | no activity | no activity | no activity |  | O=c1c(-c2ccc(O)cc2)coc2cc(O)cc(O)c12 [genistein] | 
 |  |  | shows the activity | shows the activity | shows the activity | shows the activity | Oc1ccc(C=Cc2cc(O)cc(O)c2)cc1 [resveratrol] | 
 | 13% | 40% |  |  |  | no activity | O=C1/C(=C/c2ccc(O)c(O)c2)Oc2cc(O)cc(O)c21 [aureusidin] | relative activity to each substrate, taking the activity to scutellarein as 100% (AmUGTcg10): 2%
0.3% | 0.03% |  | no activity |  | no activity |  | O=c1ccc2cc(O)c(O)cc2o1 [esculetin] | 
0.3% | 4% | 62% |  |  |  |  | COc1ccc(-c2cc(=O)c3c(O)cc(O)cc3o2)cc1O [diosmetin] | relative activity to each substrate, taking the activity to scutellarein as 100% (AmUGTcg10): 26%

The next lines start with the compound.

Compound | relative activity to each substrate, taking the activity to scutellarein as 100% (S1UGT) | relative activity to each substrate, taking the activity to scutellarein as 100% (SiUGT23) | relative activity to each substrate, taking the activity to scutellarein as 100% (PfUGT50) | glucuronosyl transfer activity to glycosyl acceptor substrate (in words) (AmUGTcg10) | glucuronosyl transfer activity to glycosyl acceptor substrate (in words) (SiUGT23) | glucuronosyl transfer activity to glycosyl acceptor substrate (in words) (PfUGT50) | glucuronosyl transfer activity to glycosyl acceptor substrate (in words) (S1UGT) | other results
O=c1cc(-c2cc(O)c(O)c(O)c2)oc2cc(O)cc(O)c12 [tricetin] | 1.1% | 14.0% | 87.9% |  |  |  |  | relative activity to each substrate, taking the activity to scutellarein as 100% (AmUGTcg10): 23.8%
O=c1c(-c2ccc(O)cc2)coc2cc(O)ccc12 [daidzein] | 0.3% |  |  | no activity | no activity | no activity |  | 
O=C(O[C@@H]1Cc2c(O)cc(O)cc2O[C@@H]1c1cc(O)c(O)c(O)c1)c1cc(O)c(O)c(O)c1 [epigallocatechin gallate] |  |  |  | no activity | no activity | no activity | no activity | 
O=C(O)[C@H]1O[C@H](OP(=O)(O)OP(=O)(O)OC[C@H]2O[C@@H](n3ccc(=O)[nH]c3=O)[C@H](O)[C@@H]2O)[C@H](O)[C@@H](O)[C@@H]1O [UDP-glucuronic acid] |  |  |  |  |  |  |  | activity to UDP-activated glycosyl donor (AmUGTcg10; [1]): showed the activity; activity to UDP-activated glycosyl donor (S1UGT; [1]): showed the activity; activity to UDP-activated glycosyl donor (PfUGT50; [1]): showed the activity
O=c1c(O)c(-c2cc(O)c(O)c(O)c2)oc2cc(O)cc(O)c12 [myricetin] |  |  | 9% |  |  |  | shows the activity | 
O=c1cc(-c2ccc(O)cc2)oc2cc(O)c([C@@H]3O[C@H](CO)[C@@H](O)[C@H](O)[C@H]3O)c(O)c12 [isovitexin] |  | 0.3% |  | no activity |  | no activity | no activity | 
catechin |  |  |  | no activity | no activity | no activity | no activity | 
Oc1ccc(C2OCC3C(c4ccc(O)c(O)c4)OCC23)cc1O (single isomer, unassigned; (+)) [EC2, (+)-episesamin catechol 2] |  |  |  |  |  |  | shows the activity | 
Oc1ccc([C@H]2OC[C@H]3[C@@H]2CO[C@@H]3c2ccc(O)c(O)c2)cc1O [SC2, (+)-sesamin catechol 2] |  |  |  |  |  |  | shows the activity | 
Oc1ccc([C@H]2OC[C@H]3[C@@H]2CO[C@@H]3c2ccc3c(c2)OCO3)cc1O [SC1, (+)-sesamin catechol 1] |  |  |  |  |  | shows the activity | shows the activity | 
O=c1cc(-c2ccc(O)c(O)c2)oc2c([C@@H]3O[C@H](CO)[C@@H](O)[C@H](O)[C@H]3O)c(O)cc(O)c12 [orientin] |  |  |  | no activity | no activity | no activity | no activity | 
